Experimental data from article PMC11650766 (ACS Infectious Diseases, 2024).

Columns and labels:
Assay in all cases: iSPP stabilization in E. coli K12 lysate at […], LC-MS/MS
Assay type in all cases: cell-based
PBP4 (DacB) = PBP4 (DacB) (Escherichia coli, UniProt P24228)
PBP1a (MrcA) = molecular target: T1, PBP1a (MrcA) (Escherichia coli, UniProt P02918)
T1 sequence (P02918 1-850): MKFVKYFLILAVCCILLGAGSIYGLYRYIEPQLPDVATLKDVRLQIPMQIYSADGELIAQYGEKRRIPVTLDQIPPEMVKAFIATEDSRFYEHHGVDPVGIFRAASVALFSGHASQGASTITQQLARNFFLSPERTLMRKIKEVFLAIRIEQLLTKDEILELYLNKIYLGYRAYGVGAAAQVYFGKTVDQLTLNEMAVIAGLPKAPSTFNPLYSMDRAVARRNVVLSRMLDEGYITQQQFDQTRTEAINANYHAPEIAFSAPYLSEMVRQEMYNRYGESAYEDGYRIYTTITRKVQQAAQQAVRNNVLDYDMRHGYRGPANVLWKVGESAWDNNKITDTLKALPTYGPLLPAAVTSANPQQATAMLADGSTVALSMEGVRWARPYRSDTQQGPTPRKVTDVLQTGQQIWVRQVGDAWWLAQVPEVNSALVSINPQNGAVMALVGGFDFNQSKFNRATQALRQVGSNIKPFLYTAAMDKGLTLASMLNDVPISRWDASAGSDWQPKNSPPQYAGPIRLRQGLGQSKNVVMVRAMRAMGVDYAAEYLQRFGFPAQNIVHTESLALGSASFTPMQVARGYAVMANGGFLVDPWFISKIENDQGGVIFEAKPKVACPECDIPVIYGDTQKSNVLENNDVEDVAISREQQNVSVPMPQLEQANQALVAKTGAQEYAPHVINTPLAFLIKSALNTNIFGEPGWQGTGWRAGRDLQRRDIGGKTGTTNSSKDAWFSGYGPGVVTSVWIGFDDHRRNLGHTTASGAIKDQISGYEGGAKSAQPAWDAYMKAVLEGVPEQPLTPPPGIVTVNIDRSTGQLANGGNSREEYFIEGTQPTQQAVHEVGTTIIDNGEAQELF

[1] = molecular target: RpoB (RNA polymerase β-subunit) (Escherichia coli, UniProt P0A8V2)
Chain of RpoB (RNA polymerase β-subunit) (P0A8V2 whole entry): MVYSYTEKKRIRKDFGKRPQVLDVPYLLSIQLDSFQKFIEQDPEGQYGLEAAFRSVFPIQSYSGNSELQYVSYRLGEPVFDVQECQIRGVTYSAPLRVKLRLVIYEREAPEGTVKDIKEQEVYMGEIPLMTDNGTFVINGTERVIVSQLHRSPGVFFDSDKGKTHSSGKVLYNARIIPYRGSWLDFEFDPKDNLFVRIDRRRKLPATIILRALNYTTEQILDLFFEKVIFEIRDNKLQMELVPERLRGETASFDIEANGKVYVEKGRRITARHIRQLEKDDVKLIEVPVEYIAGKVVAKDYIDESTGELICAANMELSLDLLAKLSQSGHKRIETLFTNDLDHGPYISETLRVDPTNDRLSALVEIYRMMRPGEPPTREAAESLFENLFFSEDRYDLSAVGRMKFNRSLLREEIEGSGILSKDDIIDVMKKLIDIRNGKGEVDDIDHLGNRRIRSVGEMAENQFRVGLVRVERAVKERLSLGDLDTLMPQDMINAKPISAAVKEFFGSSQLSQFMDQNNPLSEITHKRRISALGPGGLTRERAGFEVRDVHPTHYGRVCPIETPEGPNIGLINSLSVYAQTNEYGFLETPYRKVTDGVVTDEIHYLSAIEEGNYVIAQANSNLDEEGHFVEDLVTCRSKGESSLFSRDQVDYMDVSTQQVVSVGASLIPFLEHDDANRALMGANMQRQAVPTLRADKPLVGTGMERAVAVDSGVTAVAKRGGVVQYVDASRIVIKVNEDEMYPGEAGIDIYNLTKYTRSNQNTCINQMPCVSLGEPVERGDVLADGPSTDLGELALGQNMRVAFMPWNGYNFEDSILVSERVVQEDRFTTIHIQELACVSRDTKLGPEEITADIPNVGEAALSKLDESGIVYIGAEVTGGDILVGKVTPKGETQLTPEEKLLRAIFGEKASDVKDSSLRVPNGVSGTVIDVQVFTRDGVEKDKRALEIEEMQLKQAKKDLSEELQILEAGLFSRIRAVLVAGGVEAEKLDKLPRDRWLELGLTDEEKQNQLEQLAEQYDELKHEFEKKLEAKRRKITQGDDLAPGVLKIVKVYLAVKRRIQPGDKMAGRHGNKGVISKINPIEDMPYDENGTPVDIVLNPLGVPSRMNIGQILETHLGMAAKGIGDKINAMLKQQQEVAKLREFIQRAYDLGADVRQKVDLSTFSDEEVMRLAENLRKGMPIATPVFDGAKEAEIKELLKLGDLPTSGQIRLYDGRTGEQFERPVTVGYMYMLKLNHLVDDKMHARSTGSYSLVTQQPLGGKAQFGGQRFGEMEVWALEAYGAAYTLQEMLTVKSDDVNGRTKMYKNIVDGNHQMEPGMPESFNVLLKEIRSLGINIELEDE
Chain of RpoB (RNA polymerase β-subunit) (P0A8T7 whole entry partner): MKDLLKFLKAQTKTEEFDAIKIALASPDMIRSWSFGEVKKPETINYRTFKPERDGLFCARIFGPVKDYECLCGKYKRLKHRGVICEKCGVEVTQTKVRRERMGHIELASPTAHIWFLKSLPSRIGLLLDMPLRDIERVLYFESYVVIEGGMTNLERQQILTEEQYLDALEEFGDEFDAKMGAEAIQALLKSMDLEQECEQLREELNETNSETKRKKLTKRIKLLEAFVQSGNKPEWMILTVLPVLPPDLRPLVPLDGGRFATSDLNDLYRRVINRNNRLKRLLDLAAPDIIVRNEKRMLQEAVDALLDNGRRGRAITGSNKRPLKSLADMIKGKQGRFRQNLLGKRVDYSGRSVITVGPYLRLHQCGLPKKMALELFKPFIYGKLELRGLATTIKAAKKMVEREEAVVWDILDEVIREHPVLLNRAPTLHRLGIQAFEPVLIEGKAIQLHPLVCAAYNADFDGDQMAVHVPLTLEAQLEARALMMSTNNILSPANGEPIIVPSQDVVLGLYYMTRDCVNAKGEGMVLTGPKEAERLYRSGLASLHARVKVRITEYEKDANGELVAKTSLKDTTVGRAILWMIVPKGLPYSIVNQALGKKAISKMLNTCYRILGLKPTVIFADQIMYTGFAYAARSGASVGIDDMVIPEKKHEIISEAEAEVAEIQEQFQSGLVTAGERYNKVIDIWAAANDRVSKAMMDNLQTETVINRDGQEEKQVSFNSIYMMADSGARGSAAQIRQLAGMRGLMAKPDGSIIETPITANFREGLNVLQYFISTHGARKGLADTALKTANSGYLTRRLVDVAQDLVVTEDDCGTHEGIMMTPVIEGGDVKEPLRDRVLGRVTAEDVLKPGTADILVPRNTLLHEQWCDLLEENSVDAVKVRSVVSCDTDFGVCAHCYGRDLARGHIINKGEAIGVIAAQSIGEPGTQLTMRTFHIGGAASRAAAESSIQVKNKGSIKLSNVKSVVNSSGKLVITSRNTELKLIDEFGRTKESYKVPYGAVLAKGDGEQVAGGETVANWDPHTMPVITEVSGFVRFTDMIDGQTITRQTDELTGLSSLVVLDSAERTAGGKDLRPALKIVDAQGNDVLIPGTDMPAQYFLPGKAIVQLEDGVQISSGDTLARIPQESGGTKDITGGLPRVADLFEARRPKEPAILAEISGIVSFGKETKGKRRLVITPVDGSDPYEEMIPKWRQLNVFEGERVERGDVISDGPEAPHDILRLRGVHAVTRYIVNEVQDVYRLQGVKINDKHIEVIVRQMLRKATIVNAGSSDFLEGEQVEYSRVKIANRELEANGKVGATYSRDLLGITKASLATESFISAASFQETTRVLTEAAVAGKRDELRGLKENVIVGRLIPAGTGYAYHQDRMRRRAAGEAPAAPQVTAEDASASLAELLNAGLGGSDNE
Chain of RpoB (RNA polymerase β-subunit) (P0A7Z4 whole entry partner): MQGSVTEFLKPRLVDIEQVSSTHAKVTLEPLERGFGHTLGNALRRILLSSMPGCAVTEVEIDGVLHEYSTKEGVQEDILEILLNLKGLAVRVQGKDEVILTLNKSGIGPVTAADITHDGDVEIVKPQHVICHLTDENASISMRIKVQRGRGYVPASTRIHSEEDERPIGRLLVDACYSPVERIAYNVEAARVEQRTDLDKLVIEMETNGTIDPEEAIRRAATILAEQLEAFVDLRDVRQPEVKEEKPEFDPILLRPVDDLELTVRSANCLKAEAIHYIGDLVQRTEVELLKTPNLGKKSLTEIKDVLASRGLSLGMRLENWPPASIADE

Chain of PBP4 (DacB) (P24228 21-477): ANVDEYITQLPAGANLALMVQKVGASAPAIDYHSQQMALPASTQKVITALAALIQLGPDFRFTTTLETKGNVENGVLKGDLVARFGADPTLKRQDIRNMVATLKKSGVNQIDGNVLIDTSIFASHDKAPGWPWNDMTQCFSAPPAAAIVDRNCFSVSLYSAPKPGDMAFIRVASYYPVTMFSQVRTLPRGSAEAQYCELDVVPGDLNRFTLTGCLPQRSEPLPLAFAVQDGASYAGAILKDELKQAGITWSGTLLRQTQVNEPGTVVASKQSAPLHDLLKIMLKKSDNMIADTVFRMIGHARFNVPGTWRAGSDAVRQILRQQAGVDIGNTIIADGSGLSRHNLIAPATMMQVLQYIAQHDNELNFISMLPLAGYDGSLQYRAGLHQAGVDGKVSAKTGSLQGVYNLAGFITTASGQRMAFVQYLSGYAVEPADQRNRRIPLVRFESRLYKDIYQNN

CC1(C)S[C@@H]2[C@H](NC(=O)[C@H](N)c3ccccc3)C(=O)N2[C@H]1C(=O)O [ampicillin]
iSPP stabilization in E. coli K12 lysate at 10 μM, LC-MS/MS (PBP4 (DacB)): Ampicillin led to a significant stabilization of PBP1a (MrcA) and PBP4 (DacB), the two top hits
iSPP stabilization in E. coli K12 lysate at 10 μM, LC-MS/MS (PBP1a (MrcA)): Ampicillin led to a significant stabilization of PBP1a (MrcA) and PBP4 (DacB), the two top hits

CO[C@H]1/C=C/O[C@@]2(C)Oc3c(C)c(O)c4c(O)c(c(/C=N/N5CCN(C)CC5)c(O)c4c3C2=O)NC(=O)/C(C)=C\C=C\[C@H](C)[C@H](O)[C@@H](C)[C@@H](O)[C@@H](C)[C@H](OC(C)=O)[C@@H]1C [rifampicin]
iSPP stabilization in E. coli K12 lysate at 10 μM, LC-MS/MS [1]: for rifampicin, we observed (Figure 2A) the stabilization of other subunits within the RNAP complex in addition to the primary target RpoB
